We go through five compounds from patent EP0244363A1, “Composition and method to inhibit the growth of organisms by the use of bis-biguanido hexanes and essential oil mixture combinations” (WARNER-LAMBERT COMPANY, priority 1986, dated 1987).

Structures are written as SMILES. In brackets after ≈: the same amount, converted by molar mass. Read-outs that look alike come from different tables or passages of the source.

What all share (test): Minimal growth inhibitory concentration (MIC), serial dilution in broth, agent alone
Holding throughout (assay type): cell-based

Test [1] deals with Streptococcus mutans ATCC 25175. The following applies: for MIC in w/w%: chlorhexidine as free base concentration; for MIC: Streptococcus mutans, ATCC25175, 48 h, read-out: MIC (micro g/ml). Here is the method: (§1) MINIMAL GROWTH INHIBITORY CONCENTRATION
(§2) The minimal inhibitory concentration (MIC) of the test compound is the minimum concentration of compound required to inhibit growth of the test organism. The MIC is determined by serially diluting the test solution through tubes of sterile broth. The tubes are inoculated and incubated at 37°C for 48 hours. At the end of the incubation time, growth is checked macroscopically. The lowest concentration of test compound to inhibit growth is the MIC.

Test [2] has as its system Streptococcus sanguis ATCC 19558. The following applies: Experiment 5, S. sanguis, chlorhexidine as free base concentration. Here is the method: as §1, §2
For test [3], the system named is Candida albicans ATCC 18804. The note with it: Experiment 7, C. Albicans, chlorhexidine as free base concentration. Here is the method:
as §1, §2

Test [4] concerns Actinomyces viscosus T14V. The note with it: Experiment 6, A. viscosus, chlorhexidine as free base concentration. Here is the method: as §1, §2
Where [5] appears, read: Experiments A-D, agent alone, 37°C, 48 hours.

Turning to `[H]/N=C(\N/C(=N/[H])NCCCCCCNC(=N)NC(=N)Nc1ccc(Cl)cc1)Nc1ccc(Cl)cc1` [Chlorhexidine, 1,6-di(p-chlorophenylbiguanido)hexane], the MIC in w/w% was 2.2x10^-5 w/w% in test [1] (Experiment 1, agent alone, 37°C, 48 hours); 2.2x10^-5 w/w% in test [1] (Experiment 2, agent alone, 37°C, 48 hours); 2.8x10^-5 w/w% in test [1] (Experiment 3, agent alone, 37°C, 48 hours); 2.25x10^-5 w/w% in test [1] (Experiment 4, agent alone, 37°C, 48 hours). Further, in test [1] (setting [5]), the MIC was 0.25 µg/mL (≈ 0.495 µM). Besides, the “MIC (w/w%)” value was 3.4x10^-4 w/w% in test [2], 3.5x10^-4 w/w% in test [3] and 4.4x10^-5 w/w% in test [4].

Take `CC1CCC(C(C)C)C(O)C1` (stereo not drawn) [Menthol]: the MIC in test [1] was 30 µg/mL (≈ 192 µM).

For `CC12CCC(CC1)C(C)(C)O2` [Eucalyptol], the MIC in test [1] (setting [5]) came to 58 µg/mL (≈ 376 µM).

Take `COC(=O)c1ccccc1O` [Methyl Salicylate]: the MIC in test [1] amounted to 35 µg/mL (≈ 230 µM).

`Cc1ccc(C(C)C)c(O)c1` [Thymol]: the MIC in test [1] (setting [5]) came out at 80 µg/mL (≈ 533 µM).
